# Measured values published in US20230265098A1, “ALKYNE QUINAZOLINE DERIVATIVES AS INHIBITORS OF ERBB2” (EnLiven Therapeutics, Inc., priority 2020, published 2023).
# Legend:
# [1] = molecular target: T1, phosphorylated ERBB2 (pERBB2) (Homo sapiens, UniProt P04626); assay: Detection of phosphorylated ERBB2 (pERBB2) by ELISA in BT-474 cells; format: cell-based; settings: four hours incubation with compound, OD 450 nm
# T1 construct: endogenous in cells; host or cells: BT-474
# Description: BT-474 cells were seeded into a 96-well at 2.0*10^4 cells/100 μl/well.
# Compounds were dissolved and serially diluted in DMSO. The compounds were then were added, mixed, and incubated for four hours at 37° C., 5% CO2. Compounds were added using four-fold dilutions at final concentrations ranging from 10 μM to 0.01 nM.
# Following the four hour incubation with compounds, cell lysates were prepared. Plates were centrifuged for 5 min at 3000 RPM, and supernatant was removed from each well. Cells were washed 3 times by resuspension in 150 μl PBS, followed by centrifugation and removal of the supernatant, as above. […] Cells were incubated with lysis buffer for 1 hour at 4° C., and then stored at −80° C.
# Enzyme-linked immunosorbent assays (ELISA) were performed to measure phosphorylated ERBB2 levels. […] The next day, plates were washed with PBS+0.05% Tween20 (PBST). 150 μl of 5% BSA blocking solution was added for 1 hour at room temperature, with shaking. Plates were washed with PBST. Cell lysates were thawed and 100 μl of lysate was added to the ELISA plate. The plates were incubated for 2 hours at room temperature, with shaking. […] Plates were incubated for 1 hour at room temperature, with shaking. Plates were then washed with PBST, and 100 μl TMB substrate solution (R&D Systems, cat #DY999) was added. Plate were incubated in the dark for 20 minutes at room temperature. 50 μl of Stop solution (R&D Systems, cat #DY994) (50 μl) was added to each well and mixed.
# Optical density at 450 nm was read on an EnSpire plate reader (Perkin Elmer). The remaining kinase activity by calculated using the following formula: % Relative activity=100×(A450sample−A450LC)/(A450HC−A450LC). The low and high control values (“LC” and “HC”) were generated from lysate from wells without cells or with cells treated with 0.1% DMSO, respectively.
# [2] = system: BT-474 cells; assay: Cell viability assay (CellTiter Glo); format: cell-based; settings: Homo sapiens, 72 hours, 2000 cells per well, 384-well, DMEM + 10% FBS
# Description: (§1) Cells were treated with compounds, and cell viability was measured as a metric of kinase inhibition.
# (§2) The Ba/F3 cell line is IL-3-dependent mouse cell line derived from the C3H mouse strain. Ba/F3 cell lines were engineered to express human ERBB2 or EGFR kinases, rendering the cells IL-3 independent. The lines were generated via retroviral transduction utilizing a Moloney murine leukemia virus (MMLV) promoter, and constructs are stably integrated into the cell genome.
# (§3) Similarly, Ba/F3 cell lines engineered to express EGFR, ERBB2, or ERBB2 mutants were grown, harvested, counted and seeded at 3000 cells per well in 96-well plates for the data sets shown in Tables B3-B4, and seeded at 300 cells per well in 384-well plates for the data set shown in Table B5. A subset of wells contained media only (low control, “LC”).
# (§4) Table B2 provides the growth media and number of cells seeded per well for the each cell line.
# (§5) Compounds were dissolved in DMSO and serially diluted. Serially-diluted compound or a DMSO only control (high control, “HC”) was added to the plated cells in each well. […] The final proportion of DMSO never exceeded 0.1%.
# (§6) Plates were placed in a 37° C., 5% CO2 incubator for 72 hours. Plates were then removed from the incubator and equilibrated for 15 minutes at room temperature. 40 IA of CellTiter Glo reagent (Promega) was added to measure the relative level of metabolically active cells by quantifying intracellular ATP concentrations. Plates were incubated for 30 minutes at room temperature, and luminescence was measured. Percent viability was normalized to a vehicle control only using the following formula: % viability=100×(LumSample−LumLC) (LumHC−LumLC). Graphical curves were fitted using a nonlinear regression model with a sigmoidal dose response.
# [3] = system: MDA-MB-175VII cells; assay: Cell viability assay (CellTiter Glo); format: cell-based; settings: Homo sapiens, 72 hours, 2000 cells per well, 384-well, RPMI + 10% FBS
# Description: as §1, §2, §3, §4, §5, §6
# [4] = system: A431 cells; assay: Cell viability assay (CellTiter Glo); format: cell-based; settings: Homo sapiens, A-431; 72 hours; 1500 cells per well, 384-well; DMEM + 10% FBS
# Description: as §1, §2, §3, §4, §5, §6
# [5] = molecular target: T2, Ba/F3 ERBB2-L869R (Homo sapiens, UniProt P04626, L869R, cells depend on it); assay: Cell viability assay (CellTiter Glo); format: cell-based, mouse; settings: 72 hours; 3000 cells per well, 96-well plates; read-out: Cell viability IC50, nM, Ba/F3 ERBB2-L869R
# T2 construct: Ba/F3 cell lines were engineered to express human ERBB2 or EGFR kinases, rendering the cells IL-3 independent
# T2 sequence (P04626 whole entry L869R): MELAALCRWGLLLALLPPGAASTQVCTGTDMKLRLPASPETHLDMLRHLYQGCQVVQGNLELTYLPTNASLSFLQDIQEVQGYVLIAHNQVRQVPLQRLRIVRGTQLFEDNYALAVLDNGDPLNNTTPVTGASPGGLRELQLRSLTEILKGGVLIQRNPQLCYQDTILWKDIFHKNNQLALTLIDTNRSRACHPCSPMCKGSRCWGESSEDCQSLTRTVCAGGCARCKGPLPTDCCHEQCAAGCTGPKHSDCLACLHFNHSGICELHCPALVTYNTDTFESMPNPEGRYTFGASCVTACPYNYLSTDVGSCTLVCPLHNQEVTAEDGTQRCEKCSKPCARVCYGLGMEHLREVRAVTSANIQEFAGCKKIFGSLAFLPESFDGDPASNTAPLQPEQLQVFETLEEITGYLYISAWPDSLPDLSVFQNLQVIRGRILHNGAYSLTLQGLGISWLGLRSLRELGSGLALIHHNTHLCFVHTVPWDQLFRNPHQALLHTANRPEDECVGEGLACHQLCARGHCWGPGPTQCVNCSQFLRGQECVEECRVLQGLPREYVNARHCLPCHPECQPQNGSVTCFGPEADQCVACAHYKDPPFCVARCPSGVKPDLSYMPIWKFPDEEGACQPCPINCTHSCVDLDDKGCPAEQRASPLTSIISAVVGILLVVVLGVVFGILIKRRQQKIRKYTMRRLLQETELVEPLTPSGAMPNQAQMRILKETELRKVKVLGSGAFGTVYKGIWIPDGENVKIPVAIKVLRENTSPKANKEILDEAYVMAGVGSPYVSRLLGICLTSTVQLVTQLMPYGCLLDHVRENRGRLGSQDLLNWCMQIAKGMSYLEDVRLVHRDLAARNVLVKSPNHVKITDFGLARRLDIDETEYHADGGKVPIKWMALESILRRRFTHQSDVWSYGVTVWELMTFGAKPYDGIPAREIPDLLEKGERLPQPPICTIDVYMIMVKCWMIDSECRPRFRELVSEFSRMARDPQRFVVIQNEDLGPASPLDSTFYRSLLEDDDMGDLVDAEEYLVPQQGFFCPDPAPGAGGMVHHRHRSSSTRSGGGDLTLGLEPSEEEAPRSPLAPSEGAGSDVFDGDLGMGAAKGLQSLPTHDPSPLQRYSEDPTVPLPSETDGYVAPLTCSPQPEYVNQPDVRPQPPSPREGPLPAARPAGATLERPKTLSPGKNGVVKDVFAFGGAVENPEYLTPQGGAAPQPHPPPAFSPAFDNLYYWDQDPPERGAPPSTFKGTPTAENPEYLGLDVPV
# Description: as §1, §2, §3, §4, §5, §6
# [6] = molecular target: T3, Ba/F3 ERBB2 wt (Homo sapiens, UniProt P04626); assay: Cell viability assay (CellTiter Glo); format: cell-based, mouse; settings: 72 hours; 3000 cells per well, 96-well plates; read-out: Cell viability IC50, nM, Ba/F3 ERBB2 wt
# T3 construct: Ba/F3 cell lines were engineered to express human ERBB2 or EGFR kinases, rendering the cells IL-3 independent
# T3 sequence (P04626 whole entry, change not shown): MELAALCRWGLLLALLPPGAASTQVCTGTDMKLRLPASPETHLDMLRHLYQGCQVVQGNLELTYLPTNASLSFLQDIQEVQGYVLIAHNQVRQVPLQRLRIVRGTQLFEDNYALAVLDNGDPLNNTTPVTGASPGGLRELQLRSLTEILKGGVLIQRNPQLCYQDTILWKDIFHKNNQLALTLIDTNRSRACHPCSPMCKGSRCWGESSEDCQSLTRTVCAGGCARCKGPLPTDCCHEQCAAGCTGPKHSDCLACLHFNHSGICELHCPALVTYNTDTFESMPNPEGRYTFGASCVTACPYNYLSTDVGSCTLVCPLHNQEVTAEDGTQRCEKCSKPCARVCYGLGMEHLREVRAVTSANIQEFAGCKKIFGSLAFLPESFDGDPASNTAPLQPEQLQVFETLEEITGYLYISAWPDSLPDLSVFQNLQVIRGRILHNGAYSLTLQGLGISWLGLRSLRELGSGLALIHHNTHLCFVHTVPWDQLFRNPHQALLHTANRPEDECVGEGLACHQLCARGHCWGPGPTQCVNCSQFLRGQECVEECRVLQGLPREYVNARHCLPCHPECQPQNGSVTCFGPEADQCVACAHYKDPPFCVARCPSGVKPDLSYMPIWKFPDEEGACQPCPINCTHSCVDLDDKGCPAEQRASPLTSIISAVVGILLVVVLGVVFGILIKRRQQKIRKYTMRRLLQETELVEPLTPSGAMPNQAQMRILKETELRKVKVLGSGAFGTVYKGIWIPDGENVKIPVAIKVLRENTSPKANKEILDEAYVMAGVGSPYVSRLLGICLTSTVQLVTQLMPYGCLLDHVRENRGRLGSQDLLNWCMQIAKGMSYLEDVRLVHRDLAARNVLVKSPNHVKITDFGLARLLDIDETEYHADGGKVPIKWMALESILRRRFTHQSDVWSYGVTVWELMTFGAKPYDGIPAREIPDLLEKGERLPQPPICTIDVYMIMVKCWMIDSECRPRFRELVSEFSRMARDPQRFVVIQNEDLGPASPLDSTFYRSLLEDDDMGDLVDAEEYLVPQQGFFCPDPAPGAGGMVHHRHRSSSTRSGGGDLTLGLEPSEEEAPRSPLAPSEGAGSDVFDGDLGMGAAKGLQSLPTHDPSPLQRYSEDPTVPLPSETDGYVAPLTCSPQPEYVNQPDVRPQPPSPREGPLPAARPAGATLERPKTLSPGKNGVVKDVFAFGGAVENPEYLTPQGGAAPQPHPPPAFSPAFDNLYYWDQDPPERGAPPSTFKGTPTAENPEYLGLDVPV
# Description: as §1, §2, §3, §4, §5, §6
# [7] = molecular target: T4, Ba/F3 ERBB2 A775_G776insYVMA (Homo sapiens, UniProt P04626, DUP772-775, cells depend on it); assay: Cell viability assay (CellTiter Glo); format: cell-based, mouse; settings: 72 hours; 3000 cells per well, 96-well plates (Tables B3-B4); read-out: Cell viability IC50, nM, Ba/F3 ERBB2 A775_G776insYVMA
# T4 construct: Ba/F3 cell lines were engineered to express human ERBB2 or EGFR kinases, rendering the cells IL-3 independent
# T4 sequence (P04626 with tags, fused parts or gaps DUP772-775): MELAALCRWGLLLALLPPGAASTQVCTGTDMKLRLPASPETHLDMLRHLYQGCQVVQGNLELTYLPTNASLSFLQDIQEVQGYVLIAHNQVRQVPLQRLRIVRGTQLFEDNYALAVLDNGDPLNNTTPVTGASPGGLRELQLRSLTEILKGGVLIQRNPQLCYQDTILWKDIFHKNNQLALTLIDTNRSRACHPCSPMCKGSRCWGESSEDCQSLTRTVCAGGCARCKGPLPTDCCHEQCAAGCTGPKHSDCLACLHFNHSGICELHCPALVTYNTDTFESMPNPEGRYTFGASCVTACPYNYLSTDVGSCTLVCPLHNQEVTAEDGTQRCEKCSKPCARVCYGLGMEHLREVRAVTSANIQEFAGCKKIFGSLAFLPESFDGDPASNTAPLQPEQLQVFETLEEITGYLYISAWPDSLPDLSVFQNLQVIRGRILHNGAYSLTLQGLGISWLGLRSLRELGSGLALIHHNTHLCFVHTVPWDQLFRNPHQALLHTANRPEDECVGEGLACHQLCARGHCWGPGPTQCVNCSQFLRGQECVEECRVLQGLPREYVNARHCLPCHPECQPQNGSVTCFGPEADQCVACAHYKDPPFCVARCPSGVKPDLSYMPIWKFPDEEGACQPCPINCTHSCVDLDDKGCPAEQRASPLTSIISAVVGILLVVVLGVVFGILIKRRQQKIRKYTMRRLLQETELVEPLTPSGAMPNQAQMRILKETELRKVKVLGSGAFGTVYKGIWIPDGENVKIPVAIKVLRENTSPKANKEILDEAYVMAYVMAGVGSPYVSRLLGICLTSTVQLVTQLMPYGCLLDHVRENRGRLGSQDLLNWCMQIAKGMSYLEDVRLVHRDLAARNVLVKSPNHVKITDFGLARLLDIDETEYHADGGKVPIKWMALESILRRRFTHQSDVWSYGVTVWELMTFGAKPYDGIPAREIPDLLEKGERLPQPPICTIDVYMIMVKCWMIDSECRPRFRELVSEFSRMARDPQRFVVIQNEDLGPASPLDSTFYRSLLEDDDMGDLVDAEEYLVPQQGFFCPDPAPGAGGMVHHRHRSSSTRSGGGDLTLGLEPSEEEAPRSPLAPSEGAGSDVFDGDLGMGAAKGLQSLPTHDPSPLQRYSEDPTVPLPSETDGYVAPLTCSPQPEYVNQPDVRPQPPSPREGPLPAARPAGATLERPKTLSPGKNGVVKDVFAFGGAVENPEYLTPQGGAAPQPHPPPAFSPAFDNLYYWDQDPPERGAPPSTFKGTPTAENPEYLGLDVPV
# Description: as §1, §2, §3, §4, §5, §6
# [8] = molecular target: T5, Ba/F3 ERBB2-V777_G778insGC (Homo sapiens, UniProt P04626, INS778CG, cells depend on it); assay: Cell viability assay (CellTiter Glo); format: cell-based, mouse; settings: 72 hours; 3000 cells per well, 96-well plates; read-out: Cell viability IC50, nM, Ba/F3 ERBB2-V777_G778insGC
# T5 construct: Ba/F3 cell lines were engineered to express human ERBB2 or EGFR kinases, rendering the cells IL-3 independent
# Description: as §1, §2, §3, §4, §5, §6
# [9] = molecular target: T6, Ba/F3 ERBB2-V777L (Homo sapiens, UniProt P04626, V777L, cells depend on it); assay: Cell viability assay (CellTiter Glo); format: cell-based, mouse; settings: 72 hours; 3000 cells per well, 96-well plates; read-out: Cell viability IC50, nM, Ba/F3 ERBB2-V777L
# T6 construct: Ba/F3 cell lines were engineered to express human ERBB2 or EGFR kinases, rendering the cells IL-3 independent
# T6 sequence (P04626 whole entry V777L): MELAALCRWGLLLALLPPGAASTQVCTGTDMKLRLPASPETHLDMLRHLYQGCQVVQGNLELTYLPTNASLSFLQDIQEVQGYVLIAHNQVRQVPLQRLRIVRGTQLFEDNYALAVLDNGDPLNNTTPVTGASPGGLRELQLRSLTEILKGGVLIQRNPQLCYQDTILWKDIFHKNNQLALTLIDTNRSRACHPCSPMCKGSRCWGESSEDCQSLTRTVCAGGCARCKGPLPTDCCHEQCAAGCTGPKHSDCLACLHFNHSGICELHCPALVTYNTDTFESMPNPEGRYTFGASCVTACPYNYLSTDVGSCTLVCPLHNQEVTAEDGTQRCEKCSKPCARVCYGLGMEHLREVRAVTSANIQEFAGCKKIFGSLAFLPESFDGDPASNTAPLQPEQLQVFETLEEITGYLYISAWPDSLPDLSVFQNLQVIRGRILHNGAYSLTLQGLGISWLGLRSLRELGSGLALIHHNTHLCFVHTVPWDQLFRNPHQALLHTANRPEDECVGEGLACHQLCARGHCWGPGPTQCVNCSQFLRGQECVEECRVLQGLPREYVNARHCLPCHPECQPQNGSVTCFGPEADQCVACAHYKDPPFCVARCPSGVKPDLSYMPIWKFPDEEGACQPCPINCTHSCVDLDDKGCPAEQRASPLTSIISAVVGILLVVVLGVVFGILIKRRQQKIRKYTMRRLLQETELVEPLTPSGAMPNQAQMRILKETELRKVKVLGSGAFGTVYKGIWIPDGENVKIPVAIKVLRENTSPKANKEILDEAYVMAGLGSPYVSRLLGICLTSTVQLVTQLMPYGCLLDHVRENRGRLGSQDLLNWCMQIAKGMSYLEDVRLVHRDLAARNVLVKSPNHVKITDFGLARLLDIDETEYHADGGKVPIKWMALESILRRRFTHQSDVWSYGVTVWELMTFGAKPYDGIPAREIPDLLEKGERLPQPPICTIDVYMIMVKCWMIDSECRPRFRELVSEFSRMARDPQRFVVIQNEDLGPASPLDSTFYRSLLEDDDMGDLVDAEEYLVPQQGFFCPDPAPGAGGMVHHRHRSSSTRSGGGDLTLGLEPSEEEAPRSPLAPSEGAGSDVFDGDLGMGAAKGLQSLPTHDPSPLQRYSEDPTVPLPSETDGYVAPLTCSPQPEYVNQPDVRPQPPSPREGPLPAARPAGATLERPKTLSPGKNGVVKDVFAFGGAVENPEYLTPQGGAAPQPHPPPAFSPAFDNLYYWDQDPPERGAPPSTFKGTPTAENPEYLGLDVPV
# Description: as §1, §2, §3, §4, §5, §6
# [10] = molecular target: T7, Ba/F3 ERBB2-L755S (Homo sapiens, UniProt P04626, L755S, cells depend on it); assay: Cell viability assay (CellTiter Glo); format: cell-based, mouse; settings: 72 hours; 3000 cells per well, 96-well plates; read-out: Cell viability IC50, nM, Ba/F3 ERBB2-L755S
# T7 construct: Ba/F3 cell lines were engineered to express human ERBB2 or EGFR kinases, rendering the cells IL-3 independent
# Description: as §1, §2, §3, §4, §5, §6
# [11] = molecular target: T8, Ba/F3 ERBB2-G776VC (Homo sapiens, UniProt P04626, DELINS776-776VC, cells depend on it); assay: Cell viability assay (CellTiter Glo); format: cell-based, mouse; settings: 72 hours; 3000 cells per well, 96-well plates; read-out: Cell viability IC50, nM, Ba/F3 ERBB2-G776VC
# T8 construct: Ba/F3 cell lines were engineered to express human ERBB2 or EGFR kinases, rendering the cells IL-3 independent
# Description: as §1, §2, §3, §4, §5, §6
# [12] = molecular target: T9, Ba/F3 ERBB2-T798M (Homo sapiens, UniProt P04626, T798M, cells depend on it); assay: Cell viability assay (CellTiter Glo); format: cell-based, mouse; settings: 72 hours; 3000 cells per well, 96-well plates; read-out: Cell viability IC50, nM, Ba/F3 ERBB2-T798M
# T9 construct: Ba/F3 cell lines were engineered to express human ERBB2 or EGFR kinases, rendering the cells IL-3 independent
# Description: as §1, §2, §3, §4, §5, §6
# [13] = molecular target: T10, Ba/F3 ERBB2-P780_Y781insGSP (Homo sapiens, UniProt P04626, DUP778-780, cells depend on it); assay: Cell viability assay (CellTiter Glo); format: cell-based, mouse; settings: 72 hours; 3000 cells per well, 96-well plates; read-out: Cell viability IC50, nM, Ba/F3 ERBB2-P780_Y781insGSP
# T10 construct: Ba/F3 cell lines were engineered to express human ERBB2 or EGFR kinases, rendering the cells IL-3 independent
# Description: as §1, §2, §3, §4, §5
# as §6, with “Percent viability was normalized to a vehicle control only using the following formula: % viability=100×(LumSample−LumLC) (LumHC−LumLC).” left out
# [14] = molecular target: T11, phosphorylated EGFR (pEGFR) (Homo sapiens, UniProt P00533); assay: Detection of phosphorylated EGFR (pEGFR) in EGF-stimulated A431 cells (AlphaLISA); format: cell-based; settings: A431 cells (10% FBS), 4 hours with compound, then EGF 30 ng/mL for 10 minutes
# T11 construct: endogenous in cells; host or cells: A431
# Description: Enzyme-linked immunosorbent assays (ELISA) were performed to measure phosphorylated EGFR levels using A431 cells (10% FBS). A431 (1.0*10^4 cells/40 μl/well) cells were seeded in 384 well. Compounds were dissolved in DMSO, serially diluted in DMSO and then were added, mixed, and incubated for 4 hours at 37° C., 5% CO2. Following the 4-hours incubation, cells were stimulated for 10 minutes with EGF (Invitrogen, cat #PHG0311) at a final concentration of 30 ng/mL in the incubator. The media was aspirated and cells were lysed in 10 μL lysis buffer with protease and phosphatase inhibitors (PerkinElmer, cat #ALSU-PEGFR-A50K). The plates were placed on a shaker for 5 minutes and then incubated for 30 min at 4° C. for complete lysis. The lysate was transferred to an Optiplate (Perkin Elmer, cat #6007290).
# Acceptor mix (PerkinElmer, cat #ALSU-PEGFR-A50K) was prepared just before use and 5 μL was dispensed to all the wells, followed by a 1.5-2 h incubation at room temperature in dark. The donor mix (PerkinElmer, cat #ALSU-PEGFR-A50K) was prepared under low light conditions prior to use and […] of donor mix was added to all the wells under subdued lighting or green filters. The plates were placed on a shaker for 5 min, sealed, and incubated overnight at room temperature in dark. Plates were read on the Envision (PerkinElmer) using standard AlphaLISA settings.
# The percentage of inhibition on EGFR phosphorylation was calculated following equation: % Inhibition=100×(LumHC−LumSample)/(LumHC−LumLC). The low and high controls (LC/HC) are generated from lysate from wells with cells treated with DMSO or […] Staurosporine (BioAustralis, cat #BIA-S1086), […]. IC50 values were calculated by fitting the Curve using XLfit (v5.3.1.3), equation 201: Y=Bottom+(Top−Bottom)/(1+10^((LogIC50−X)*HillSlope)).
IC50 [1] [nM],IC50 [2] [nM],IC50 [3] [nM],IC50 [4] [nM],IC50 [14] [nM],Compound,GI50 [5] [nM],GI50 [6] [nM],GI50 [7] [nM],GI50 [8] [nM],GI50 [9] [nM],GI50 [10] [nM],GI50 [11] [nM],GI50 [12] [nM],GI50 [13] [nM]
14.3,9.6,30.4,3550,–,"CC#CC(=O)Nc1ccc2ncnc(Nc3ccc(Cc4ccn5ncnc5c4)cc3)c2c1 [Compound 14, N-[4-[(4-[[1,2,4]triazolo[1,5-a]pyridin-7-ylmethyl]phenyl)amino]quinazolin-6-yl]but-2-ynamide]",9.5,5.1,36,4,1.5,25,13,482,3.8
–,–,–,–,–,"CC#CC(=O)Nc1ccc2ncnc(Nc3ccc(Oc4ccc(C)nc4)c(C)c3)c2c1 [Compound 5, N-[4-([3-methyl-4-[(6-methylpyridin-3-yl)oxy]phenyl]amino)quinazolin-6-yl]but-2-ynamide]",2.3,2.3,8.3,1.3,1.1,6,3.8,44,1.1
17,2.17,–,–,70.9,"Cc1cc(Nc2ncnc3cc(OCCO)c(NC(=O)C#CC4CC4)cc23)ccc1Oc1ccn2ncnc2c1 [Compound 168, 3-cyclopropyl-N-[7-(2-hydroxyethoxy)-4-[(3-methyl-4-[[1,2,4]triazolo[1,5-a]pyridin-7-yloxy]phenyl)amino]quinazolin-6-yl]prop-2-ynamide]",–,–,–,–,–,–,–,–,–
